Laboratory results taken from patent publication US11753446B2, “Beta-hairpin peptidomimetics” (POLYPHOR AG, priority 2014, dated 2023).
Where two headings read alike, the source gives them in different places. One block for each molecule: values may come before it. Where a SMILES comes first, the peptide text is derived from it. Bridges are numbered along the chain shown (N, C = ends). [ ]: non-standard residue; d: D form. Tle = CC(C)(C)[C@H](N)C(=O)O; dDab = NCC[C@@H](N)C(=O)O; Orn = NCCC[C@H](N)C(=O)O; Dab = NCC[C@H](N)C(=O)O

Assays:
[1] = system: Klebsiella pneumoniae ATCC 13883; assay type: cell-based
In short: (§1)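 Peptide activity was tested by NCCLS broth microdilution with slight modifications. Bacteria were diluted in cation-adjusted Mueller-Hinton II broth to approximately 10^6 CFU/mL against a 0.5 McFarland standard. They were then exposed to two-fold serial peptide dilutions in broth containing 0.002% final polysorbate 80.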

[2] = system: Acinetobacter baumannii DSM 30008; assay type: cell-based
In short: as §1

[3] = system: Escherichia coli ATCC 25922; assay type: cell-based
In short: as §1

[4] = system: human red blood cells (hRBC); test: Hemolysis: hemolytic activity at 100 μg/mL, 1 h at 37° C.
In short: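 Peptides at 100 μg/mL incubated with washed 20% (v/v) human erythrocytes (~0.9×10^9 cells/mL) for 1 h at 37 °C with shaking. Released hemoglobin read at OD 540 nm in supernatant; 0% and 100% lysis from PBS/0.001% acetic acid and 2.5% Triton X-100.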

[5] = Mueller-Hinton II broth, 18-20 hours at 35° C.
[6] = 100 μg/mL, 20% hRBC, 1 h at 37° C.

Compound: CC(C)C[C@@H]1NC(=O)[C@H](CCCNC(=N)N)NC(=O)[C@@H](CCN)NC(=O)[C@H](C(C)(C)C)NC(=O)[C@@H]2CSSC[C@H](NC1=O)C(=O)N[C@@H](Cc1ccc(O)cc1)C(=O)N[C@@H](CC(N)=O)C(=O)N[C@@H](CCCN)C(=O)N[C@H](CCN)C(=O)N[C@@H](CCN)C(=O)N[C@@H](Cc1c[nH]c3ccccc13)C(=O)N[C@@H](CO)C(=O)N[C@@H](Cc1ccc(O)cc1)C(=O)N2 [Example 64, cyclo(-Leu-Cys-Tyr-Asn-Orn-^DDab-Dab-Trp-Ser-Tyr-Cys-tBuGly-^DDab-Arg-)] (cyclo(C[Tle][dDab]RLCYN[Orn][dDab][Dab]WSY); disulfide 1-6)
Klebsiella pneumoniae ATCC 13883 MIC [1, 5]: 1 µg/mL
Acinetobacter baumannii DSM 30008 MIC [2, 5]: 1.125 µg/mL
Escherichia coli ATCC 25922 MIC [3, 5]: 1 µg/mL
Hemolysis at 100 μg/mL [4, 6]: 1%

Compound: CC(C)C[C@@H]1NC(=O)[C@H](CCN)NC(=O)[C@@H](CCN)NC(=O)[C@H]([C@@H](C)O)NC(=O)[C@@H]2CSSC[C@H](NC1=O)C(=O)N[C@@H](Cc1ccc(O)cc1)C(=O)N[C@@H](CC(N)=O)C(=O)N[C@@H](CCCN)C(=O)N[C@H](CCN)C(=O)N[C@@H](CCN)C(=O)N[C@@H](Cc1c[nH]c3ccccc13)C(=O)N[C@@H](CO)C(=O)N[C@@H](C(C)(C)C)C(=O)N2 [Example 6, cyclo(-Leu-Cys-Tyr-Asn-Orn-^DDab-Dab-Trp-Ser-tBuGly-Cys-Thr-^DDab-Dab-)] (cyclo(CT[dDab][Dab]LCYN[Orn][dDab][Dab]WS[Tle]); disulfide 1-6)
Klebsiella pneumoniae ATCC 13883 MIC [1, 5]: 0.5 µg/mL
Acinetobacter baumannii DSM 30008 MIC [2, 5]: 0.5 µg/mL
Escherichia coli ATCC 25922 MIC [3, 5]: 0.5 µg/mL
Hemolysis at 100 μg/mL [4, 6]: 5%

Klebsiella pneumoniae ATCC 13883 MIC ([1]; ATCC 13883): 1 µg/mL
Acinetobacter baumannii DSM 30008 MIC ([2]; DSM 30008): 4 µg/mL
Escherichia coli ATCC 25922 MIC ([3]; ATCC 25922): 1 µg/mL
Compound: CC[C@H](C)[C@@H]1NC(=O)[C@H](Cc2ccc(O)cc2)NC(=O)[C@H]2CCCN2C(=O)[C@H](CO)NC(=O)[C@H](C)NC(=O)[C@H](C(C)(C)C)NC(=O)[C@H](CCN)NC(=O)[C@H](Cc2c[nH]c3ccccc23)NC(=O)[C@H](CCN)NC(=O)[C@@H](CCN)NC(=O)[C@H](CCCN)NC(=O)[C@H](CCN)NC(=O)[C@H](Cc2ccc(O)cc2)NC(=O)[C@H]([C@@H](C)O)NC1=O [Example 47, cyclo(-Ile-Thr-Tyr-Dab-Orn-^DDab-Dab-Trp-Dab-tBuGly-Ala-Ser-^DPro-Tyr-)] (HELM PEPTIDE1{A.S.[dP].Y.I.T.Y.[Dab].[Orn].[NCC[C@@H](N[*:1])C(=O)[*:2]].[Dab].W.[Dab].[CC(C)(C)[C@H](N[*:1])C(=O)[*:2]]}$PEPTIDE1,PEPTIDE1,1:R1-14:R2$$$V2.0)
Hemolysis at 100 μg/mL ([4]; red cells of human, 1 h, 100): 0%

Compound: CC(C)C[C@@H]1NC(=O)[C@H](CCCNC(=N)N)NC(=O)[C@@H](CCN)NC(=O)[C@H](C(C)C)NC(=O)[C@@H]2CSSC[C@H](NC1=O)C(=O)N[C@@H](Cc1ccc(O)cc1)C(=O)N[C@@H](CC(N)=O)C(=O)N[C@@H](CCCN)C(=O)N[C@@H](CCN)C(=O)N[C@@H](CCN)C(=O)N[C@@H](Cc1c[nH]c3ccccc13)C(=O)N[C@@H](CO)C(=O)N[C@@H](Cc1ccc(O)cc1)C(=O)N2 [Example 55, cyclo(-Leu-Cys-Tyr-Asn-Orn-Dab-Dab-Trp-Ser-Tyr-Cys-Val-^DDab-Arg-)] (HELM PEPTIDE1{C.V.[NCC[C@@H](N[*:1])C(=O)[*:2]].R.L.C.Y.N.[Orn].[Dab].[Dab].W.S.Y}$PEPTIDE1,PEPTIDE1,1:R3-6:R3|PEPTIDE1,PEPTIDE1,1:R1-14:R2$$$V2.0)
Klebsiella pneumoniae ATCC 13883 MIC ([1]; ATCC 13883): 1 µg/mL
Acinetobacter baumannii DSM 30008 MIC ([2]; DSM 30008): 1.25 µg/mL
Escherichia coli ATCC 25922 MIC ([3]; ATCC 25922): 1 µg/mL
Hemolysis at 100 μg/mL ([4]; red cells of human, 1 h, 100): 0%
